Assay [1] concerns passive cutaneous anaphylaxis (PCA) reaction in rats. The assay can be described thus: Inhibition of PCA reaction in rats. The following applies: Rattus norvegicus, po; for inhibition in vivo at 10 mg/kg / inhibition in vivo at 3 mg/kg: read-out: Inhibition of PCA in rat. In kind it is in vivo, Wistar rats. The procedure: (§1) Antiserum was prepared according to the method described in J. Immunol., 106, 1002 (1971). The titer (or highest effective dilution which gave a mean 48 hours PCA response of 5 mm in diameter in a rat) of the antiserum used was 1:200.
Wistar rats were passively sensitized by intracutaneous injection of 0.05 ml antiserum diluted 75 times with physiological saline at two sheared sites of dorsal skin. After 48 hours, 0.5ml/animal of 1% Evans blue-physiological saline containing 2mg ovalbumin was administered into caudal vein to elicit the reaction. After 30 minutes, rats were sacrificed by decapitative bleeding and the dorsal skin was flayed. Dye stuff exuded at the reaction site was extracted according to the method described in Microbiol. Immunol., 22, 89 (1978). Briefly, two circular pieces of sensitized areas and one circular piece of unsensitized area (as the control) were punched at 1.8 cm diameter. The disks were placed in test tubes and treated overnight with 1 ml 1N-KOH at 37° C. Then 9ml 0.6N-H3 PO4 /acetone (5/13) was added and the mixture was thoroughly stirred and centrifuged (3000 rpm, 10 minutes). The supernatant was assayed for absorption at 620 nm. The amount of dye stuff was calculated from the standard curve previously prepared with known amounts of Evance blue. The conditions of sensitization and the amount of antigen were based on Nippon Yakurigaku Zasshi (Japanese Journal of Pharmacology),80, 261 (1982).
Test drugs and Oxatomide as a positive control were administered orally before 1 hour of elicitation through a gastric tube at 1 ml/200g body weight. In the test, groups of 6 to 7 animals and groups of 8 to 9 animals were used for test drugs and control, respectively.

Assay [2] deals with experimental asthma in rats. The assay is described as follows: Inhibition of experimental asthma in rats. Type of assay: in vivo, Wistar rats. The note with it: Rattus norvegicus, po; for inhibition in vivo at 1 mg/kg: other dosage/kg: 1 mg; for inhibition in vivo at 0.1 mg/kg: other dosage/kg: 0.1 mg; for inhibition in vivo at 0.3 mg/kg: other dosage/kg: 0.3 mg. The procedure:
as §1
Wistar rats were passively sensitized by injection into caudal vein of 2.0ml/animal antiserum. After 24 hours, anaphylactic airway contraction caused by administration of antigen was measured by a modified Konzett and Roessler method. Briefly, the animal was fixed at dorsal position under urethane (1.5 g/kg, i.p.) anesthetization and connected with a respirator (Harvard Model 683, respiratory volume: 3-5 ml/respiration; respiratory rate: 72/minute) via an incised tracheal cannula. […] Oxatomide was administered two hours before the test, which is the optimal conditions according to Nippon Yakurigaku Zasshi (Japanese Journal of Pharmacology), 80, 261 (1982), and the other test drugs were orally administered at a rate of 0.2 ml/100 g body weight one hour before the test using a gastric tube. At the end of measurement, the trachea was blocked with a Kocher clamp and the measured values were expressed in percent taking the value at blockage as the maximum contraction (100%).

The mark [3] stands for this setting: 10 mg/kg, read-out: Inhibition of Experimental Asthma in rat.
[4] abbreviates: read-out: Inhibition of Experimental Asthma in rat.

Where two headings read alike, the source gives them in different places.

With `O=c1ccc2cc(Cl)ccc2n1CCCN1CCC(c2c[nH]c3ccccc23)CC1` [VII-1, 1-[3-[4-(1H-indol-3-yl)-piperidinyl]propyl]-6-chloro-2-(1H)-quinolinone], the values for the inhibition in vivo at 10 mg/kg in assay [1] (10 mg/kg) and in assay [2] (setting [3]) were 12.1% and 40.3%, respectively.
As to `Cc1cccc2c(CCN3CCC(c4c[nH]c5ccccc45)CC3)cc(=O)[nH]c12` [III-24, 4-[2-[4-(1H-indol-3-yl)-1-piperidinyl]ethyl]-8-methyl-2-(1H)-quinolinone], the inhibition in vivo at 10 mg/kg in assay [1] (10 mg/kg) amounted to 102%; in assay [2] (setting [3]), 73.8%. Besides, the inhibition in vivo at 1 mg/kg in assay [2] was 95.7%.
For `O=C1Cc2ccccc2C(=C2CCN(CCCc3cc(=O)[nH]c4ccccc34)CC2)c2ccsc21` [III-15, 4,9-dihydro-4-[1-[3-(1,2-dihydro-2-oxo-4-quinolyl)propyl]-4-piperidinylidene]-10H-benzo[4, 5]cyclohepta[1,2-b]thiophen-10-one], the inhibition in vivo at 10 mg/kg in assay [1] (10 mg/kg) was 49.9%; in assay [2] (setting [3]), 37.5%.
For the molecule `O=c1cc(CCCCCN2CCC(c3c[nH]c4ccccc34)CC2)c2ccccc2[nH]1` [III-5, 4-[5-[4-(1H-indol-3-yl)-1-piperidinyl]pentyl]-2(1H)-quinolinone], the inhibition in vivo at 10 mg/kg in assay [1] (10 mg/kg) was 66.5%; in assay [2] (setting [3]), 8.87%.
Consider `O=c1cc(CCN2CCC(c3c[nH]c4ccccc34)CC2)c2ccc(Br)cc2[nH]1` [III-18, 7-bromo-4-[2-[4-(1H-indol-3-yl)-1-piperidinyl]ethyl]-2(1H)-quinolinone], for which the inhibition in vivo at 10 mg/kg in assay [1] (10 mg/kg) turned out to be 45.2%; in assay [2] (setting [3]) it was 84.2%. For the same molecule, the inhibition in vivo at 1 mg/kg in assay [2] came out at 62.6%.
In the case of `O=C1CC(CCN2CCC(c3c[nH]c4ccccc34)CC2)c2ccccc2N1` (centres unmarked) [IV-1, 3,4-dihydro-4-[2-[4-(1H-indol-3-yl)-1-piperidinyl]ethyl]-2(1H)-quinolinone], the inhibition in vivo at 10 mg/kg in assay [1] (10 mg/kg) was determined as 95.9%; in assay [2] (setting [3]) it was 80.1%. In addition, the inhibition in vivo at 3 mg/kg in assay [1] (other dosage/kg: 3 mg) was determined as 65.9%. Moreover, the inhibition in vivo at 1 mg/kg in assay [2] was found to be 26.4%.
For the molecule `O=C1Cc2ccccc2C(=C2CCN(CCc3cc(=O)[nH]c4ccccc34)CC2)c2ccsc21` [III-14, 4,9-dihydro-4-[1-[2-(1,2-dihydro-2-oxo-4-quinolyl)ethyl]-4-piperidinylidene]-10H-benzo[4, 5]cyclohepta[1,2-b]thiophen-10-one], the values for the inhibition in vivo at 10 mg/kg in assay [1] (10 mg/kg) and in assay [2] (setting [3]) were 23.1% and 44.8%, respectively.
Regarding `Cn1c(=O)cc(CN2CCC(c3c[nH]c4ccccc34)CC2)c2ccccc21` [III-16, 4-[[4-(1H-indol-3-yl)-l-piperidinyl]methyl]-1-methyl-2(1H)-quinolinone], the inhibition in vivo at 10 mg/kg came out at 45.6% in assay [1] and 2.57% in assay [2] (setting [4]).
As for `O=c1cc(CN2CCC(c3c[nH]c4ccccc34)CC2)c2ccccc2[nH]1` [III-1, 4-[[4-(1H-indol-3-yl)-l-piperidinyl]methyl]-2(1H)-quinolinone], in assay [1], the inhibition in vivo at 3 mg/kg came to 58.8% and the inhibition in vivo at 10 mg/kg is 73.1%. Further, in assay [2] (setting [4]), the inhibition in vivo at 10 mg/kg is 14.6% and the inhibition in vivo at 30 mg/kg was determined as 14.3%.
For `Cc1cc(=O)n(CCCN2CCC(c3c[nH]c4ccccc34)CC2)c2ccccc12` [VII-4, 1-[3-[4-(1H-indol-3-yl)-1-piperidinyl]propyl]-4-methyl-2-(1H)-quinolinone], the inhibition in vivo at 10 mg/kg is 89.2% in assay [1] (10 mg/kg) and 10.8% in assay [2] (setting [3]).
Take `O=c1cc(CCCN2CCC(OC(c3ccccc3)c3ccccc3)CC2)c2ccccc2[nH]1` [III-12, 4-[3-[4-(diphenylmethoxy)-1-piperidinyl]propyl]-2(1H)-quinolinone]: the values for the inhibition in vivo at 10 mg/kg in assay [1] (10 mg/kg) and in assay [2] (setting [3]) were 73.6% and 12.1%, respectively.
As for `Cc1ccc2c(CCN3CCC(c4c[nH]c5ccccc45)CC3)cc(=O)[nH]c2c1` [III-25, 4-[2-[4-(1H-indol-3-yl)-1-piperidinyl]ethyl]-7-methyl-2-(1H)-quinolinone], the results for the inhibition in vivo at 10 mg/kg in assay [1] (10 mg/kg) and in assay [2] (setting [3]) were 29.4% and 68.6%, respectively.
For the molecule `Cc1ccc2[nH]c(=O)cc(CCN3CCC(c4c[nH]c5ccccc45)CC3)c2c1` [III-23, 4-[2-[4-(1H-indol-3-yl)-1-piperidinyl]ethyl]-6-methyl-2(1H)-quinolinone], in assay [1] (10 mg/kg), the inhibition in vivo at 10 mg/kg stood at 62%. Moreover, the inhibition in vivo at 10 mg/kg in assay [2] (setting [3]) was 95.5%. In assay [2], the inhibition in vivo at 0.1 mg/kg was determined as 48.5%, the inhibition in vivo at 0.3 mg/kg amounted to 84% and the inhibition in vivo at 1 mg/kg stood at 95%.
For `Cn1c(=O)cc(CCN2CCC(c3c[nH]c4ccccc34)CC2)c2ccccc21` [III-17, 4-[2-[4-(1H-indol-3-yl)-1-piperidinyl]ethyl]-1-methyl-2(1H)-quinolinone], the inhibition in vivo at 10 mg/kg in assay [1] (10 mg/kg) is 42.5%. Also, in assay [2] (setting [3]), the inhibition in vivo at 10 mg/kg was 86.5%. Besides, in assay [2], the inhibition in vivo at 0.1 mg/kg was 96.2%, the inhibition in vivo at 0.3 mg/kg is 80.9% and the inhibition in vivo at 1 mg/kg stood at 88.1%.
As for `O=c1cc(CCCN2CCN(C(c3ccccc3)c3ccccc3)CC2)c2ccccc2[nH]1` [III-8, 4-[3-[4-(diphenylmethyl)-1-piperazinyl]propyl]-2(1H)-quinolinone], the inhibition in vivo at 10 mg/kg in assay [1] (10 mg/kg) was determined as 73.9%; in assay [2] (setting [3]) it was 17.1%.
On to `O=c1cc(CCN2CCN(C(c3ccccc3)c3ccc(Cl)cc3)CC2)c2ccccc2[nH]1` (centres unmarked) [III-9], for which the inhibition in vivo at 10 mg/kg stood at 8.9% in assay [1] (10 mg/kg) and 34.6% in assay [2] (setting [3]).
`O=c1cc(-c2ccccc2)c2ccccc2n1CCCN1CCC(c2c[nH]c3ccccc23)CC1` [VII-5, 1-[3-[4-(1H-indol-3-yl)-piperidinyl]propyl]-4-phenyl-2(1H)-quinolinone]: the inhibition in vivo at 10 mg/kg in assay [1] (10 mg/kg) is 6.7%; in assay [2] (setting [3]), 50.1%.
The matching figures for `O=c1cc(-c2ccc(Cl)cc2)c2ccccc2n1CCCN1CCC(c2c[nH]c3ccccc23)CC1` [VII-6, 4-(4-chlorophenyl)-l-[3-[4-(1H-indol-3-yl)-1-piperidinyl]propyl]-2(1H)-quinolinone]: 9.4% and 19.3%.
Turning to `O=c1cc(CCN2CCN(C(c3ccccc3)c3ccccc3)CC2)c2ccccc2[nH]1` [III-7, 4-[2-[4-(diphenylmethyl)-1-piperazinyl]ethyl]-2(1H)-quinolinone], the inhibition in vivo at 10 mg/kg in assay [1] (10 mg/kg) is 57.8%; in assay [2] (setting [3]), 63.6%.
Turning to `Cc1ccc2c(ccc(=O)n2CCCN2CCC(c3c[nH]c4ccccc34)CC2)c1` [VII-2, 1-[3-[4-(1H-indol-3-yl)-1-piperidinyl]propyl]-6-methyl-2(1H)-quinolinone], the inhibition in vivo at 10 mg/kg in assay [1] (10 mg/kg) was 41.9%; in assay [2] (setting [3]), 24.3%.
On to `O=c1cc(CN2CCN(C(c3ccccc3)c3ccccc3)CC2)c2ccccc2[nH]1` [III-6, 4-[[4-(diphenylmethyl)-1-piperazinyl]methyl]-2(1H)-quinolinone], for which the figures for the inhibition in vivo at 10 mg/kg in assay [1] (10 mg/kg) and in assay [2] (setting [3]) were 9.7% and 57.2%, respectively.
As to `O=c1cc(CCN2CCC(c3c[nH]c4ccccc34)CC2)c2cc([N+](=O)[O-])ccc2[nH]1` [III-19, 4-[2-[4-(1H-indol-3-yl)-1-piperidinyl]ethyl]-6-nitro-2(1H)-quinolinone], the inhibition in vivo at 10 mg/kg in assay [1] (10 mg/kg) worked out at 20.3%; in assay [2] (setting [3]), 88.5%.
`O=c1cc(CCCCN2CCC(c3c[nH]c4ccccc34)CC2)c2ccccc2[nH]1` [III-4, 4-[4-[4-(1H-indol-3-yl)-1-piperidinyl]butyl]-2(1H)-quinolinone]: the results for the inhibition in vivo at 10 mg/kg in assay [1] (10 mg/kg) and in assay [2] (setting [3]) were 12.8% and 28.7%, respectively.
For `O=c1cc(CCCN2CCC(c3c[nH]c4ccccc34)CC2)c2ccccc2[nH]1` [III-3, 4-[3-[4-(1H-indol-3-yl)-1-piperidinyl]propyl]-2(1H)-quinolinone], the values for the inhibition in vivo at 10 mg/kg in assay [1] (10 mg/kg) and in assay [2] (setting [3]) were 69.1% and 85%, respectively. Moreover, the inhibition in vivo at 1 mg/kg turned out to be 21.3% in assay [1] (other dosage/kg: 1 mg) and 25.4% in assay [2]. Further, the figures for the inhibition in vivo at 3 mg/kg in assay [1] (other dosage/kg: 3 mg) and in assay [2] (other dosage/kg: 3 mg) were 25.8% and 88.7%, respectively. Besides, the inhibition in vivo at 30 mg/kg in assay [1] (other dosage/kg: 30 mg) came to 96.1%.

For the origin of these results see patent US5457099A, “Carbostyril derivatives and antiallergic agent” (Sawai Pharmaceutical Co., Ltd., priority 1992, dated 1995).
